ChEMBL document CHEMBL6121036, “Evaluation of Cereblon-Directing Warheads for the Development of Orally Bioavailable PROTACs” (J Med Chem, 2025)
≈ marks a conversion by molar mass, not a printed value. Calls of active or inactive are those of the source. The rule behind the calls is not given here.

Assays:
[1] = target: T1, Protein cereblon/Bromodomain-containing protein 4 (Homo sapiens, UniProt O60885+Q96SW2); experiment: PROTAC activity at CRBN/Hibit-tagged BRD4 (unknown origin) expressed in HEK293 cells co-expressing LgBiT assessed as degradation of BRD4 incubated for 24 hrs by […] glo-max assay; assay type: cell-based
[2] = target: T1, Protein cereblon/Bromodomain-containing protein 4; experiment: PROTAC activity at CRBN/Hibit-tagged BRD4 (unknown origin) expressed in HEK293 cells co-expressing LgBiT assessed as degradation of BRD4 incubated for 24 hrs by […] glo-max assay relative to control; assay type: cell-based
[3] = target: T1, Protein cereblon/Bromodomain-containing protein 4; experiment: PROTAC activity at CRBN/Hibit-tagged BRD4 (unknown origin) expressed in HEK293 cells co-expressing LgBiT assessed as degradation rate incubated for 24 hrs by […] glo-max assay; assay type: cell-based
[4] = test system: MV4-11; experiment: Cytotoxicity against human MV4-11 cells assessed as reduction in cell viability incubated for 72 hrs by cell-titer glo assay; assay type: functional, cell-based; details: MV4-11, 72 h
[5] = test system: HD-MB03; experiment: Cytotoxicity against human HD-MB03 cells assessed as reduction in cell viability incubated for 72 hrs by cell-titer glo assay; assay type: functional, cell-based; details: HD-MB03, 72 h
[6] = Kinetic aqueous solubility of the compound at pH 7.4; assay type: physicochemical; details: read-out: Kinetic_solubility
[7] = Metabolic stability in mouse liver microsomes assessed as half life; assay type: ADME, Microsome; details: for half-life: liver microsomes
[8] = target: T2, Protein cereblon/Bromodomain-containing protein 4/DNA damage-binding protein 1 (Homo sapiens) (UniProt O60885+Q96SW2+Q16531); experiment: Binding affinity to his-tagged CRBN/DDB1/GST-tagged BRD4 (49 to 170 residues)(unknown origin) assessed as ternary complex formation (AUC) incubated for 1 hr by luminescence based Alphascreen assay; assay type: protein assay
[9] = test system: HEK293; experiment: Cytotoxicity against HEK293 cells expressing LgBiT fused HiBiT-BRD2 measured after 24 hrs by cell titer-glo assay; assay type: toxicity, cell-based; details: human, hek293, 24 h
[10] = target: T2, Protein cereblon/Bromodomain-containing protein 4/DNA damage-binding protein 1 (Homo sapiens); experiment: Binding affinity to his-tagged CRBN/DDB1/GST-tagged BRD4 (49 to 170 residues)(unknown origin) assessed as ternary complex formation by measuring AUC incubated for 1 hr by luminescence based Alphascreen assay; assay type: protein assay
[11] = Cmax in female CD1 mouse at 10 mg/kg, po measured upto 24 hrs by LC-MS/MS analysis; assay type: ADME, organism-based; details: in vivo
[12] = target: T3, Protein cereblon/Bromodomain-containing protein 2 (Homo sapiens) (UniProt P25440+Q96SW2); experiment: PROTAC activity at CRBN/Hibit-tagged CRISPR BRD2 (unknown origin) expressed in HEK293 cells coexpressing LgBiT assessed as degradation of BRD2 by […] glo-max assay; assay type: cell-based
[13] = target: T4, Protein cereblon/Bromodomain-containing protein 3 (Homo sapiens) (UniProt Q15059+Q96SW2); experiment: PROTAC activity at CRBN/Hibit-tagged CRISPR BRD3 (unknown origin) expressed in HEK293 cells co-expressing LgBiT assessed as degradation of BRD3 by […] glo-max assay; assay type: cell-based
[14] = target: T1, Protein cereblon/Bromodomain-containing protein 4; experiment: PROTAC activity at CRBN/Hibit-tagged CRISPR BRD4 (unknown origin) expressed in HEK293 cells co-expressing LgBiT assessed as degradation of BRD4 by […] glo-max assay; assay type: cell-based
[15] = target: T3, Protein cereblon/Bromodomain-containing protein 2 (Homo sapiens); experiment: PROTAC activity at CRBN/Hibit-tagged CRISPR BRD2 (unknown origin) expressed in HEK293 cells coexpressing LgBiT assessed as degradation of BRD2 by […] glo-max assay relative to control; assay type: cell-based
[16] = target: T4, Protein cereblon/Bromodomain-containing protein 3 (Homo sapiens); experiment: PROTAC activity at CRBN/Hibit-tagged CRISPR BRD3 (unknown origin) expressed in HEK293 cells co-expressing LgBiT assessed as degradation of BRD3 by […] glo-max assay relative to control; assay type: cell-based
[17] = target: T1, Protein cereblon/Bromodomain-containing protein 4; experiment: PROTAC activity at CRBN/Hibit-tagged CRISPR BRD4 (unknown origin) expressed in HEK293 cells co-expressing LgBiT assessed as degradation of BRD4 by […] glo-max assay relative to control; assay type: cell-based
[18] = target: T3, Protein cereblon/Bromodomain-containing protein 2 (Homo sapiens); experiment: PROTAC activity at CRBN/Hibit-tagged CRISPR BRD2 (unknown origin) expressed in HEK293 cells coexpressing LgBiT assessed as degradation of BRD2 measured after 10 to 14 hrs by […] glo-max assay; assay type: cell-based; details: time 10-14 hrs
[19] = target: T4, Protein cereblon/Bromodomain-containing protein 3 (Homo sapiens); experiment: PROTAC activity at CRBN/Hibit-tagged CRISPR BRD3 (unknown origin) expressed in HEK293 cells co-expressing LgBiT assessed as degradation of BRD3 measured after 13 to 16 hrs by […] glo-max assay; assay type: cell-based; details: time 13-16 hrs
[20] = target: T1, Protein cereblon/Bromodomain-containing protein 4; experiment: PROTAC activity at CRBN/Hibit-tagged CRISPR BRD4 (unknown origin) expressed in HEK293 cells co-expressing LgBiT assessed as degradation of BRD4 measured after 18 to 24 hrs by […] glo-max assay; assay type: cell-based; details: time 18-24 hrs
[21] = target: Protein cereblon (Homo sapiens) (UniProt Q96SW2); experiment: Binding affinity to CRBN (unknown origin)
[22] = Permeability in human MV4-11 cells assessed as cell availability index relative to lenalidomide; assay type: ADME, cell-based
[23] = Effect on BRD3 level in human MV4-11 cells assessed as fold change at 100 nM measured after 4 hrs; assay type: functional
[24] = Effect on BRD4 level in human MV4-11 cells assessed as fold change at 100 nM measured after 4 hrs; assay type: functional
[25] = Effect on BRD2 level in human MV4-11 cells assessed as fold change at 100 nM measured after 4 hrs; assay type: functional
[26] = Effect on MYC level in human MV4-11 cells assessed as fold change at 100 nM measured after 4 hrs; assay type: functional
[27] = Effect on FYTTD1 level in human MV4-11 cells assessed as fold change at 100 nM measured after 4 hrs; assay type: functional
[28] = Effect on CCNF level in human MV4-11 cells assessed as fold change at 100 nM measured after 4 hrs; assay type: functional
[29] = Effect on CDC42EP3 level in human MV4-11 cells assessed as fold change at 100 nM measured after 4 hrs; assay type: functional
[30] = Effect on MCL1 level in human MV4-11 cells assessed as fold change at 100 nM measured after 4 hrs; assay type: functional
[31] = Effect on PLAU level in human MV4-11 cells assessed as fold change at 100 nM measured after 4 hrs; assay type: functional
[32] = Effect on ZFP36L2 level in human MV4-11 cells assessed as fold change at 100 nM measured after 4 hrs; assay type: functional
[33] = Effect on FGL2 level in human MV4-11 cells assessed as fold change at 100 nM measured after 4 hrs; assay type: functional
[34] = Effect on NSA2 level in human MV4-11 cells assessed as fold change at 100 nM measured after 4 hrs; assay type: functional
[35] = Effect on CCND3 level in human MV4-11 cells assessed as fold change at 100 nM measured after 4 hrs; assay type: functional
[36] = Effect on AURKA level in human MV4-11 cells assessed as fold change at 100 nM measured after 4 hrs; assay type: functional
[37] = Effect on NOP53 level in human MV4-11 cells assessed as fold change at 100 nM measured after 4 hrs; assay type: functional
[38] = Effect on PLK1 level in human MV4-11 cells assessed as fold change at 100 nM measured after 4 hrs; assay type: functional
[39] = Effect on RNF166 level in human MV4-11 cells assessed as fold change at 100 nM measured after 4 hrs; assay type: functional
[40] = Effect on ZBTB21 level in human MV4-11 cells assessed as fold change at 100 nM measured after 4 hrs; assay type: functional
[41] = Effect on TP53 level in human MV4-11 cells assessed as fold change at 100 nM measured after 4 hrs; assay type: functional
[42] = Permeability in MDCK-II cells incubated for 1 hr by UPLC/MS/UV analysis; assay type: ADME, cell-based, Canis lupus familiaris; details: dog, read-out: permeability
[43] = Stability in mouse plasma assessed as half life by UPLC-MS/MS analysis; assay type: ADME, cell-free
[44] = AUC last in female CD1 mouse at 10 mg/kg, po measured upto 24 hrs by LC-MS/MS analysis; assay type: ADME, organism-based; details: in vivo

Cc1sc2c(c1C)C(c1ccc(Cl)cc1)=N[C@@H](CC(=O)NCCc1ccc(C3CCC(=O)NC3=O)cc1)c1nnc(C)n1-2 (some centres undefined)
DC50 [1]: 0.19 nM
Emax [2]: 98%
Activity [3]: 0.733 fRLU/hr
IC50 [4]: 0.18 nM
IC50 [5]: 2.23 nM
solubility kinetic [6]: 71.4 µM (≈ 43.9 µg/mL)
half-life [7]: 0.27 h
Activity [8]: Active
Activity [9]: Non-toxic
AUC [10]: 292000

Cc1sc2c(c1C)C(c1ccc(Cl)cc1)=N[C@@H](CC(=O)N1CCC(CN3CCN(c4ccc5c(c4)n(C)c(=O)n5C4CCC(=O)NC4=O)CC3)CC1)c1nnc(C)n1-2 (some centres undefined)
DC50 [1]: 0.57 nM
Emax [2]: 96.9%
Activity [3]: 0.343 fRLU/hr
IC50 [4]: 0.03 nM
IC50 [5]: 0.56 nM
solubility kinetic [6]: 74.5 µM (≈ 61.3 µg/mL)
half-life [7]: 2.17 h
t1/2 ([7]; microsomes): 2.17 h
Activity [8]: Active
Activity [9]: Non-toxic
Cmax [11]: 0.023 µg/mL
Activity [12]: Active
Activity [13]: Active
Activity [14]: Active
Activity [15]: > 95%
Activity [16]: > 95%
Activity [17]: > 90%
Activity [18]: Active
Activity [19]: Active
Activity [20]: Active
Activity [21]: Active
Ratio [22]: 3.7
fold change (FC) [23]: -4.26
fold change (FC) [24]: -3.81
fold change (FC) [25]: -3.63
fold change (FC) [26]: -2.43
fold change (FC) [27]: -1.69
fold change (FC) [28]: -2.01
fold change (FC) [29]: -1.05
fold change (FC) [30]: -1.19
fold change (FC) [31]: -1.08
fold change (FC) [32]: -1.03
fold change (FC) [33]: -0.86
fold change (FC) [34]: -1.12
fold change (FC) [35]: -0.86
fold change (FC) [36]: -1.01
fold change (FC) [37]: -0.87
fold change (FC) [38]: -0.76
fold change (FC) [39]: -0.24
fold change (FC) [40]: -0.13
fold change (FC) [41]: 1.88
Papp at 1 h [42]: 9.5 nm/s
half-life [43]: 68.4 h
AUC(0-t) at 24 h [44]: 0.097 µg·h/mL
